Results from patent US20240279641A1, “Structural Neuroplasticity Enhancer Screen” (Northwestern University, priority 2021, published 2024).

Experiments:
Assay type in all cases: cell-based, mouse
[1] = test system: primary hippocampal and cortical neurons; test: SARE-ArcMin-luciferase-PSD95-mVenus luciferase assay in primary neuronal cultures, 96-well; conditions: hippocampal vs cortical primary cultures, 96-well plate
Experimental: (§1) Animals were handled according to protocols approved by the Northwestern University Animal Care and Use Committee. Cortical neurons were harvested from mouse embryos euthanized at embryonic day 18 and plated in poly-D-lysine coated plates. Embryonic brains were dissected in ice-cold dissection media (Hank's balance salt solution HBSS, 2% penicillin-streptomycin, 20 mM HEPES). Meninges were removed from each brain and cortices were dissected out. The cortices were chopped into small pieces using a microscissors and pooled in 5 mL dissection media containing 0.25% trypsin and 0.1% DNasel and trypsinised at 37° ° C. for 20-25 min. Cortices were washed twice with warm dissection media, and once with warm plating medium (MEM, supplemented with 10% heat-inactivated horse serum, 0.6% glucose, 1 mM Na pyruvate, 1% Glutamax, 1% penicillin-streptomycin) for 5 min each. Tissues were titurated in 3 mL fresh plating medium with unpolished and, subsequently, polished glass Pasteur pipettes. 1 k, 80 k, 150 k, 2500 k cells were seeded in 384-well, 12-well, 6-well plates, 10-cm dishes, respectively. […]
Luciferase substrate systems were prepared according to the Manufacturer's instructions. […] Plates were read by Biotek Syngery Neo2 plate reader. […]

primary cortical neurons = test: Western blot of biotinylation by TurboID constructs in cortical neurons; conditions: 55 mM KCl
Experimental: as §1, with “pipettes.” for “pipettes. 1 k, 80 k, 150 k, 2500 k cells were seeded in 384-well, 12-well, 6-well plates, 10-cm dishes, respectively.”
Cell pellets were sonicated in NP40 lysis buffer (1% NP40, 150 mM NaCl, 50 mM Tris, pH 8, 1× Halt). […] Total protein was detected using REVERT 700 according to the manufacturer instructions. […] All quantification was performed using LI-COR Image Studio version 5.2. For densitometry quantification, band signals were normalized to total protein stain in each blot using the equation below.

Psd95 = test: Western blot analysis of forskolin stimulation in cell culture: Psd95; conditions: 1 μM forskolin vs 0.1% DMSO, normalized band signal, n=3, adj. p=1
Experimental: (§2) For initial 384-well plate set up and western blot validation, forskolin (from 25 mM DMSO stock) was used as a positive control and DMSO was used as a vehicle control. For example, at 25 and 2.5 μM forskolin (0.1%, 0.01% DMSO), the corresponding vehicle control was 0.1% and 0.01% DMSO, respectively. Media was changed to NB-27 containing pharmacological agents (concentration specified in figure legends) and processed as described in each section 16 hrs after treatment.
(§3) Cell pellets were sonicated in NP40 lysis buffer (1% NP40, 150 mM NaCl, 50 mM Tris, pH 8, 1× Halt). Proteins were separated in 12% Tris-glycine gels and transferred to nitrocellulose membrane (Cat. No. 926-31090, LI-COR, NE, USA). Blots were briefly rinsed with TBS. Total protein was detected using REVERT 700 according to the manufacturer instructions. For detecting individual proteins, unless specified, blots were blocked with 5% milk-containing TBST (0.1% Tween20) for 1 hr at RT. Primary antibodies were added in the same blocking buffer for overnight incubation (1:1,000 rabbit RFP, Rockland, Cat. No., 600-401-379-RTU, and 1:1,000 mouse Psd95 Biolegend Cat. Nol, 810401)). […] All quantification was performed using LI-COR Image Studio version 5.2. For densitometry quantification, band signals were normalized to total protein stain in each blot using the equation below. […]

NanoLuc = test: Western blot analysis of forskolin stimulation in cell culture: NanoLuc (RFP); conditions: 1 μM forskolin vs 0.1% DMSO, normalized band signal, n=3, adj. p=0.324
Experimental: as §2, §3

cFos = test: Western blot analysis of forskolin stimulation in cell culture: cFos; conditions: 1 μM forskolin vs 0.1% DMSO, normalized band signal, n=3, adj. p=0.0462
Experimental: as §2, §3

COc1ccc(-c2ccc(=N)n(CCCC(=O)O)n2)cc1 [Gabazine]
dose-response of luciferase activity, construct (1) [1]: dose-response is cell-type specific

CNC1(c2ccccc2Cl)CCCCC1=O (stereo not drawn) [Ketamine]
dose-response of luciferase activity, construct (1) [1]: dose-response is cell-type specific

[Cl-].[K+] [KCl]
biotin-labelling after induction of neuronal activity (primary cortical neurons): enhanced biotin-labelling

C=C[C@@]1(C)CC(=O)[C@]2(O)[C@@]3(C)[C@@H](O)CCC(C)(C)[C@@H]3[C@H](O)[C@H](OC(C)=O)[C@@]2(C)O1 [forskolin]
Psd95 expression, FSK−DMSO (Psd95): −0.048±0.1131 | NanoLuc expression, FSK−DMSO (NanoLuc): 0.583±0.267 | cFos expression, FSK−DMSO (cFos): 3.232±0.769
